This note sets out measurements from patent publication US20230417736A1, “MONITORING MEMBRANE PROTEIN TRAFFICKING FOR DRUG DISCOVERY AND DRUG DEVELOPMENT” (UNIVERSITY OF HOUSTON SYSTEM, priority 2020, published 2023).

This assay addresses T1, human β2AR (Homo sapiens, UniProt P07550).
T1 construct: expressed in transfected cells
Description: GPCR internalization assay using NanoBiT technology (β2AR-SmBiT with LgBiT-FYVE, early endosomes). As to conditions: for Internalization of GPCRs (luminescent signal) in the presence of endocytosis inhibitors: 10 μM of endocytosis inhibitors, cells pretreated, then ligand stimulation. Format: cell-based. The text has this:
Applicant initially focused on studying the different internalization rates of class A G-protein coupled receptors (GPCRs). For this, Applicant first established a set of GPCRs involved in a wide variety of physiological functions and diseases such as Galanin (GAL receptors), Chemokine receptors (CCR), and β-adrenergic receptors ((βAR). Applicant devised a strategy to monitor how the GPCR bound to its corresponding ligand is removed from the cell surface, subsequently localized in early endosomes, and then finally recycled into the cell membrane. To accomplish this, Applicant covalently linked a small fragment of NLuc (SmBiT) to the C-terminal of the receptor, where a flexible linker is located between the two proteins (FIGS. 9-10). This linker was designed to be composed mainly of glycine and alanine amino acids to provide flexibility and not to alter the pharmacological properties of the native receptor (FIGS. 2A-2B).
FYVE domains bind phosphatidylinositol 3-phosphate from early endosomes, in a manner that is dependent on its metal ion coordination and basic amino acids. This FYVE domain inserts into cell membranes in a pH-dependent manner, where it is composed of two small beta hairpins (or zinc knuckles) and followed by an alpha helix. Additionally, the FYVE finger binds two zinc ions where this FYVE finger has eight potential zinc coordinating cysteine positions and is characterized by having basic amino acids around the cysteines. To achieve this, the gene of the FYVE domain of the human Endofin (residues from Q739 to K806) was synthesized and covalently attached by molecular cloning into a large fragment of NLuc (LgBiT) at the N-termini (FIGS. 2A-2B).
The ability to monitor internalization in response to ligand stimulation was assessed in HEK293 cells expressing the corresponding human receptor. In the case of GPCRs, the assay was performed using the corresponding endogenous ligands (i.e., epinephrine).
HEK293 cells were maintained in Dulbecco's modified Eagle's medium (DMEM) supplemented with 10% fetal bovine serum (FBS), 100 U/ml penicillin G, and […] streptomycin (Invitrogen; Carlsbad, CA, USA). At 1 day before transfection, the cells were seeded in 96-well plates at a density of 2.5×10^4 cells per well. […] After a 10 minute incubation, 25 μl substrate (furimazine) was added, and once every minute subsequent luminescence measurements were taken for 5-10 minutes for signal stabilization. A total of 10 μl of ligand, antibody, or viral suspension was then added to each well and luminescence measurements were recorded immediately and once every minute for 1-3 hours (Synergy 2 Multi-Mode Microplate Reader BioTek, Winooski, VT, USA).

T1 sequence (P07550 whole entry): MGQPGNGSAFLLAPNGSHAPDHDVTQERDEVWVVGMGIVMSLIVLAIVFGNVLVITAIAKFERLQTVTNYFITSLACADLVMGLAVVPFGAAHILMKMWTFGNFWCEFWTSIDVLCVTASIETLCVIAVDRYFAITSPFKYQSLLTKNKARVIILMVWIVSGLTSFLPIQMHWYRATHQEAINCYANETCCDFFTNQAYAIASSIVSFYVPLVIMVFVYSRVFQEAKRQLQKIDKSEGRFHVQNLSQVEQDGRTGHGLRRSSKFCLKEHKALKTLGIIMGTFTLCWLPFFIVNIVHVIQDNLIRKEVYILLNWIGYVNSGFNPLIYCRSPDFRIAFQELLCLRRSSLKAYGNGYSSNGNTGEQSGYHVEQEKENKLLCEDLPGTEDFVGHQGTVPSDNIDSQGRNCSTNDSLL

Take `Cn1c(CNc2cccc(C(=O)NCc3ccccc3C(F)(F)F)c2)nnc1-c1ccncc1` [Cmpd101]: the “Internalization of GPCRs (luminescent signal) in the presence of endocytosis inhibitors” value (shortened to “Internalization … of endocytosis inhibitors”) is “inhibited”.

Consider `O=C(N/N=C/c1ccc(O)c(O)c1)c1cc2ccccc2cc1O` [Dynasore], for which the “Internalization … of endocytosis inhibitors” value is reported as “inhibited”.

In the case of `O=C1N=C(NS(=O)(=O)c2cccc3ccccc23)SC1=Cc1ccc(Br)cc1` [PiTStop], the “Internalization … of endocytosis inhibitors” value is “inhibited”.

Take `CNC[C@H](O)c1ccc(O)c(O)c1` [epinephrine]: the “Blue luminescent signal (β2AR translocation into early endosomes) in response to the agonist” value (different concentrations of epinephrine) is reported as “increased the blue luminescent signal in a concentration-dependent manner”.
